Reference: US11655246B2, “Aminothiazole compounds as inhibitors of CTPS1” (STEP PHARMA S.A.S., priority 2017, dated 2023)
Where “and” joins values, the source holds several entries; their conditions need not be identical. Equal entries are not always repeated.

Molecular target: T1, human CTPS1 (Homo sapiens, UniProt P17812)
T1 construct: purchased Proteros biostructures GmbH
T1 sequence (P17812 1-591): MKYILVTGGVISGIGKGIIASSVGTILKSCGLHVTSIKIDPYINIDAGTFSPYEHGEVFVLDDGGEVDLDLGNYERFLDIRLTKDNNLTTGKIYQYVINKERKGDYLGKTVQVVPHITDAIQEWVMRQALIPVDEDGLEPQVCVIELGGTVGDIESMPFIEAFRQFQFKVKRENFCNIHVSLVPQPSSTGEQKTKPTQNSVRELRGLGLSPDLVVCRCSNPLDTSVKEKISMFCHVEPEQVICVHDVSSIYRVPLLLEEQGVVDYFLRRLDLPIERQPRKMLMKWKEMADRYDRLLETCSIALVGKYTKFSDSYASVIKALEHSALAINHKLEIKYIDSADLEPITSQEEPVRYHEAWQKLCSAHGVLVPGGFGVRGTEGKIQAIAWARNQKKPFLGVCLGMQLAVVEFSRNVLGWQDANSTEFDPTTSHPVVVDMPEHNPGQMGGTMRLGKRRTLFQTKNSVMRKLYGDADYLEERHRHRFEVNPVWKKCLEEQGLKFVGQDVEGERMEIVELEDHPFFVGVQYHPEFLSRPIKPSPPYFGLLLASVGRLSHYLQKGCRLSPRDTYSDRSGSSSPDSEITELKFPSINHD
Test: Human CTPS1 enzyme inhibition (ADP-Glo Max assay)
Type: biochemical
Conditions: Table 17, 25° C., read-out: CTPS1 (Human CTPS1 Enzyme Inhibition data grouped by potency range)
Summary of the method: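 ADP-Glo Max luminescence detection of ATP-to-ADP conversion by the enzyme, in 50 mM Tris, 10 mM MgCl2, 0.01% Tween-20, pH 8.0, with 2 mM L-cysteine added fresh. Enzyme preincubated with compound 10 minutes at 25° C. Percentage inhibition calculated per compound concentration.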

SMILES | IC50 [nM]
O=C(Nc1ccc(-c2cncc(F)c2)cc1)C1CCc2sc(NS(=O)(=O)C3CC3)nc21 (stereo not drawn) [T218] | 100 to 1000
COC(C(=O)Nc1ccc(-c2cccnc2)cc1)c1csc(NS(=O)(=O)C2CC2)n1 (stereo not drawn) [T219] | < 100
COC(C(=O)Nc1ccc(-c2cccnc2)cc1F)c1csc(NS(=O)(=O)C2CC2)n1 (stereo not drawn) [T220] | < 100
CCC(C(=O)Nc1ccc(-c2cccnc2)cc1Cl)c1csc(NS(=O)(=O)C2CC2)n1 (stereo not drawn) [T221] | < 100
CCC(C(=O)Nc1ccc(-c2cncc(C3CC3)n2)cc1)c1csc(NS(=O)(=O)C2CC2)n1 (stereo not drawn) [T291] | < 100
Cc1sc(NS(=O)(=O)C2CC2)nc1C(C)(C)C(=O)Nc1ccc(-c2cncc(Cl)c2)cc1 [T314] | 100 to 1000
CCC(C(=O)N(C)c1ccc(-c2cccnc2)cc1)c1csc(NS(=O)(=O)C2CC2)n1 (stereo not drawn) [T315] | 100 to 1000
CCC(C(=O)N(C)c1ccc(-c2cncc(C#N)c2)cc1)c1csc(NS(=O)(=O)C2CC2)n1 (stereo not drawn) [T316] | 100 to 1000

The remaining lines, values ahead:

IC50 [nM] | SMILES
< 100 | CC(C)(C(=O)Nc1ccc(-c2cnccn2)cc1F)c1csc(NS(=O)(=O)C2CC2)n1 [T274]
100 to 1000 | Cc1ncc(-c2ccc(NC(=O)C(C)(C)c3csc(NS(=O)(=O)C4CC4)n3)cc2)nc1Cl [T277]
100 to 1000 | CCOc1cncc(-c2ccc(NC(=O)C(C)(C)c3nc(NS(=O)(=O)C4CC4)sc3C)cc2)n1 [T317]

Same assay, conditions: Table 18, additional potency data, 25° C., read-out: CTPS1 (Human CTPS1 Enzyme Inhibition data grouped by potency range)

SMILES | IC50
CCOc1cncc(-c2ccc(NC(=O)C(NC(C)=O)c3csc(NS(=O)(=O)C4CC4)n3)cc2)n1 (stereo not drawn) [T326, 2-acetamido-2-(2-(cyclopropanesulfonamido)thiazol-4-yl)-N-(4-(6-ethoxypyrazin-2-yl)phenyl)acetamide] | < 100 nM
CCOc1cncc(-c2ccc(NC(=O)C(NC(=O)OC)c3csc(NS(=O)(=O)C4CC4)n3)cc2)n1 (stereo not drawn) [T327, methyl (1-(2-(cyclopropanesulfonamido)thiazol-4-yl)-2-((4-(6-ethoxypyrazin-2-yl)phenyl)amino)-2-oxoethyl)carbamate] | < 100 nM
CCOc1cncc(-c2ccc(NC(=O)C(CCO)c3csc(NS(=O)(=O)C4CC4)n3)cc2)n1 (stereo not drawn) [T329, 2-(2-(cyclopropanesulfonamido)thiazol-4-yl)-N-(4-(6-ethoxypyrazin-2-yl)phenyl)-4-hydroxybutanamide] | < 100 nM
COCCS(=O)(=O)Nc1nc(C(C)(C)C(=O)Nc2ccc(-c3cncc(C(F)(F)F)n3)cn2)cs1 [T332, 2-(2-((2-methoxyethyl)sulfonamido)thiazol-4-yl)-2-methyl-N-(5-(6-(trifluoromethyl)pyrazin-2-yl)pyridin-2-yl)propanamide] | 100 to 1000 nM
CC(C)(C(=O)Nc1ccc(-c2cccnc2)cc1)c1csc(NS(=O)(=O)C2CCCC2)n1 [T333, 2-(2-(cyclopentanesulfonamido)thiazol-4-yl)-2-methyl-N-(4-(pyridin-3-yl)phenyl)propanamide] | 1000 to 10000 nM
CCc1cc(-c2cncc(Cl)c2)cc(CC)c1NC(=O)C(C)(C)c1csc(NS(=O)(=O)C2CC2)n1 [T348, N-(4-(5-chloropyridin-3-yl)-2,6-diethylphenyl)-2-(2-(cyclopropanesulfonamido)thiazol-4-yl)-2-methylpropanamide] | 100 to 1000 nM
CCc1cc(-c2cncc(C#N)c2)cc(CC)c1NC(=O)C(C)(C)c1csc(NS(=O)(=O)C2CC2)n1 [T349, N-(4-(5-cyanopyridin-3-yl)-2,6-diethylphenyl)-2-(2-(cyclopropanesulfonamido)thiazol-4-yl)-2-methylpropanamide] | 100 to 1000 nM
Cc1sc(NS(=O)(=O)C2CC2)nc1C(C)(C)C(=O)Nc1ccc(-c2cncc(C(F)(F)F)c2)cc1F [T350, 2-(2-(cyclopropanesulfonamido)-5-methylthiazol-4-yl)-N-(2-fluoro-4-(5-(trifluoromethyl)pyridin-3-yl)phenyl)-2-methylpropanamide] | 100 to 1000 nM
CC(C)(C(=O)Nc1c(F)cc(-c2cncc(Cl)c2)cc1F)c1csc(NS(=O)(=O)C2CC2)n1 [T351, N-(4-(5-chloropyridin-3-yl)-2,6-difluorophenyl)-2-(2-(cyclopropanesulfonamido)thiazol-4-yl)-2-methylpropanamide] | 100 to 1000 nM and < 100 nM

Continued, values first:

IC50 | SMILES
< 100 nM | CCOc1cncc(-c2ccc(NC(=O)C(c3csc(NS(=O)(=O)C4CC4)n3)N(C)C)cc2)n1 (stereo not drawn) [T328, 2-(2-(cyclopropanesulfonamido)thiazol-4-yl)-2-(dimethylamino)-N-(4-(6-ethoxypyrazin-2-yl)phenyl)acetamide]
100 to 1000 nM | CC(C)(C(=O)Nc1ccc(-c2cncc(C(F)(F)F)n2)cc1)c1csc(NS(=O)(=O)C2CCCC2)n1 [T334, 2-(2-(cyclopentanesulfonamido)thiazol-4-yl)-2-methyl-N-(4-(6-(trifluoromethyl)pyrazin-2-yl)phenyl)propanamide]
100 to 1000 nM | CCOc1cncc(-c2ccc(NC(=O)C(C)(C)c3csc(NS(=O)(=O)C4CCCC4)n3)cc2)n1 [T335, 2-(2-(cyclopentanesulfonamido)thiazol-4-yl)-N-(4-(6-ethoxypyrazin-2-yl)phenyl)-2-methylpropanamide]
100 to 1000 nM | CC(C)c1cncc(-c2ccc(NC(=O)C(C)(C)c3csc(NS(=O)(=O)C4CC4)n3)nc2)n1 [T336, 2-(2-(cyclopropanesulfonamido)thiazol-4-yl)-N-(5-(6-isopropylpyrazin-2-yl)pyridin-2-yl)-2-methylpropanamide]
< 100 nM | CCOc1cncc(-c2ccc(NC(=O)C(C)(C)c3csc(NS(=O)(=O)C4CC4)n3)nc2)c1 [T337, 2-(2-(cyclopropanesulfonamido)thiazol-4-yl)-N-(5′-ethoxy-[3,3′-bipyridin]-6-yl)-2-methylpropanamide]
1000 to 10000 nM | CC(C)(O)c1cncc(-c2ccc(NC(=O)C(C)(C)c3csc(NS(=O)(=O)C4CC4)n3)nc2)n1 [T338, 2-(2-(cyclopropanesulfonamido)thiazol-4-yl)-N-(5-(6-(2-hydroxypropan-2-yl)pyrazin-2-yl)pyridin-2-yl)-2-methylpropanamide]
1000 to 10000 nM | COC(C)(C)c1cncc(-c2ccc(NC(=O)C(C)(C)c3csc(NS(=O)(=O)C4CC4)n3)nc2)n1 [T339, 2-(2-(cyclopropanesulfonamido)thiazol-4-yl)-N-(5-(6-(2-methoxypropan-2-yl)pyrazin-2-yl)pyridin-2-yl)-2-methylpropanamide]
100 to 1000 nM | Cc1sc(NS(=O)(=O)C2CC2)nc1C(C)(C)C(=O)Nc1ccc(-c2cncc(C(F)(F)F)n2)cn1 [T340, 2-(2-(cyclopropanesulfonamido)-5-methylthiazol-4-yl)-2-methyl-N-(5-(6-(trifluoromethyl)pyrazin-2-yl)pyridin-2-yl)propanamide]
< 100 nM | CCOc1cncc(-c2ccc(NC(=O)C(C)(C)c3csc(NS(=O)(=O)C4CC4)n3)nc2)n1 [T341, 2-(2-(cyclopropanesulfonamido)thiazol-4-yl)-N-(5-(6-ethoxypyrazin-2-yl)pyridin-2-yl)-2-methylpropanamide]
< 100 nM | CCOc1cncc(-c2ccc(NC(=O)C(C)(C)c3nc(NS(=O)(=O)C4CC4)sc3C)nc2)n1 [T342, 2-(2-(cyclopropanesulfonamido)-5-methylthiazol-4-yl)-N-(5-(6-ethoxypyrazin-2-yl)pyridin-2-yl)-2-methylpropanamide]
< 100 nM | CC(C)(C(=O)Nc1ccc(-c2cncc(Cl)c2)cc1C(F)(F)F)c1csc(NS(=O)(=O)C2CC2)n1 [T343, N-(4-(5-chloropyridin-3-yl)-2-(trifluoromethyl)phenyl)-2-(2-(cyclopropanesulfonamido)thiazol-4-yl)-2-methylpropanamide]
< 100 nM | CC(C)(C(=O)Nc1ccc(-c2cncc(C#N)c2)cc1C(F)(F)F)c1csc(NS(=O)(=O)C2CC2)n1 [T344, N-(4-(5-cyanopyridin-3-yl)-2-(trifluoromethyl)phenyl)-2-(2-(cyclopropanesulfonamido)thiazol-4-yl)-2-methylpropanamide]
< 100 nM | CC(C)(C(=O)Nc1ccc(-c2cncc(F)c2)cc1C(F)(F)F)c1csc(NS(=O)(=O)C2CC2)n1 [T345, 2-(2-(cyclopropanesulfonamido)thiazol-4-yl)-N-(4-(5-fluoropyridin-3-yl)-2-(trifluoromethyl)phenyl)-2-methylpropanamide]
100 to 1000 nM | CC(C)(C(=O)Nc1ccc(-c2cncc(C(F)(F)F)n2)cc1C(F)(F)F)c1csc(NS(=O)(=O)C2CC2)n1 [T346, 2-(2-(cyclopropanesulfonamido)thiazol-4-yl)-2-methyl-N-(2-(trifluoromethyl)-4-(6-(trifluoromethyl)pyrazin-2-yl)phenyl)propanamide]
< 100 nM | CCOc1cncc(-c2ccc(NC(=O)C(C)(C)c3csc(NS(=O)(=O)C4CC4)n3)c(C(F)(F)F)c2)n1 [T347, 2-(2-(cyclopropanesulfonamido)thiazol-4-yl)-N-(4-(6-ethoxypyrazin-2-yl)-2-(trifluoromethyl)phenyl)-2-methylpropanamide]
100 to 1000 nM | Cc1cc(NC(=O)C(C)(C)c2csc(NS(=O)(=O)C3CC3)n2)c(F)cc1-c1cncc(Cl)c1 [T352, N-(4-(5-chloropyridin-3-yl)-2-fluoro-5-methylphenyl)-2-(2-(cyclopropanesulfonamido)thiazol-4-yl)-2-methylpropanamide]
